Measured values taken from patent US10104891B2 (priority 2014, dated 2018).

Experiments:
Format in all cases: in vivo
Phytophthora infestans = experiment: whole plant or invertebrate; details: for control value (Test 1): tomato late blight, control value vs untreated section; for pest or weed control at 4 µg/mL: Phytophthora infestans, in Solanum lycopersicum, 96 h, read-out: control value (Test 1)
[1] = system: Pseudoperonospora cubensis; experiment: Test 2: control effect against cucumber downy mildew; details: control value vs untreated section; for pest or weed control at 4 µg/mL: Pseudoperonospora cubensis, 120 h
Experimental: (§1) A 10% wettable powder created according to the Pharmaceutical Formulation Example 1 was diluted with a Tween20 solution prepared to a concentration of 1/5000, then the compound of formula [1] was prepared to a concentration of 4 ppm. Further, the compound of formula [1] in Test 4 was adjusted to a concentration of 1,000 ppm.
<Test 2 Test of Control Effect Against Cucumber Downy Mildew>
(§2) Test suspension was applied to cucumber at the 2 leaf stage (species: Sagami hanjiro) in an amount of 20 ml per seedling. One day after application, zoospore suspension of Pseudoperonospora cubensis adjusted to a concentration of 1.0×10^4 units/ml was misted/inoculated, and the seedlings were incubated in a moist chamber adjusted to 22° C. for 16 hr. Then, the onset of the disease was induced in the chamber, and the lesion area rate on the leaves 5 days after inoculation was investigated to compute the control value using the formula below. control value={1−onset area rate of the leaves that were applied the test agent/onset area rate of untreated leaves}×100 Computational formula of the control value: […]

Plasmopara viticola = experiment: Test 3: control effect against grape downy mildew; details: control value vs untreated section; for pest or weed control at 4 µg/mL: Plasmopara viticola, 120 h
Experimental: as §1
<Test 3 Test of Control Effect Against Grape Downy Mildew>
as §2, with “grape seedling” for “cucumber at the 2 leaf stage”, “Neomuscat)” for “Sagami hanjiro)”, “Plasmopara viticola” for “Pseudoperonospora cubensis”

Compound | control value (Test 1) (Phytophthora infestans) | control value (Test 2) [1] | control value (Test 3) (Plasmopara viticola) | pest or weed control at 4 µg/mL (Phytophthora infestans) | pest or weed control at 4 µg/mL [1] | pest or weed control at 4 µg/mL (Plasmopara viticola)
Cc1cc(C(F)(F)F)nn1CC(=O)N1CCC(c2nc(C3OCc4cccc([N+](=O)[O-])c4CO3)cs2)CC1 (stereo not drawn) [Compound 1-12] | 100 | 100 | 100 |  |  | 
Cc1ccc(C)c(CC(=O)N2CCC(c3nc(C4OCc5c(F)c(F)c(F)c(F)c5CO4)cs3)CC2)c1 [Compound 2-27] | 100 | 100 | 100 |  |  | 
COc1ccc([N+](=O)[O-])c2c1COC(c1csc(C3CCN(C(=O)Cn4nc(C(F)(F)F)cc4C)CC3)n1)OC2 (stereo not drawn) [Compound 1-46] | 100 | 100 | 100 |  |  | 
O=C(Cc1cc(Cl)ccc1Cl)N1CCC(c2nc(C3OCc4cccc([N+](=O)[O-])c4CO3)cs2)CC1 (stereo not drawn) [Compound 2-36] | 100 | 100 | 100 |  |  | 
Cc1cc(C(F)(F)F)nn1CC(=O)N1CCC(c2nc(C3OCc4c(Br)ccc(OS(C)(=O)=O)c4CO3)cs2)CC1 (stereo not drawn) [Compound 1-66] | 100 | 100 | 100 |  |  | 
Cc1cc(C(F)(F)F)nn1CC(=O)N1CCC(c2nc(C3OCc4cccc(-c5ccccc5)c4CO3)cs2)CC1 (stereo not drawn) [Compound 1-56] | 90 | 100 | 100 |  |  | 
Cc1cc(OS(C)(=O)=O)c2c(c1C)COC(c1csc(C3CCN(C(=O)Cn4nc(C(F)(F)F)cc4C)CC3)n1)OC2 (stereo not drawn) [Compound 1-64] | 100 | 100 | 100 |  |  | 
O=C(Cn1nc(C(F)F)cc1C(F)F)N1CCC(c2nc(C3OCc4cccc([N+](=O)[O-])c4CO3)cs2)CC1 (stereo not drawn) [Compound 1-126] | 100 | 100 | 100 |  |  | 
COc1ccc(OS(C)(=O)=O)c2c1COC(c1csc(C3CCN(C(=O)Cn4nc(Cl)cc4Cl)CC3)n1)OC2 (stereo not drawn) [Compound 1-109, 4-[4-(6-methoxy-9-methylsulfonyloxy-1,5-dihydro-3H-2,4-benzodioxepin-3-yl)-2-thiazolyl]-1-[2-(3,5-dichloro-1H-pyrazole-1-yl)acetyl]piperidine] |  |  |  | 100% | 100% | 100%
Cc1ccc(C)c(CC(=O)N2CCC(c3nc(C4OCc5cccc(OC(F)F)c5CO4)cs3)CC2)c1 (stereo not drawn) [Compound 2-47] | 100 | 100 | 100 |  |  | 
Cc1ccc2c(c1)COC(c1csc(C3CCN(C(=O)Cn4nc(C(F)(F)F)cc4C)CC3)n1)OC2 (stereo not drawn) [Compound 1-20] | 100 | 100 | 100 |  |  | 
O=C(Cn1nc(C(F)F)cc1C(F)F)N1CCC(c2nc(C3OCc4cccc(C=NO)c4CO3)cs2)CC1 (stereo not drawn) [Compound 1-145] | 100 | 100 | 100 |  |  | 
CS(=O)(=O)Oc1ccc(OS(C)(=O)=O)c2c1COC(c1csc(C3CCN(C(=O)Cn4nc(C(F)(F)F)cc4C(F)(F)F)CC3)n1)OC2 [Compound 1-147, 4-[4-[6,9-bis(methylsulfonyloxy)-1,5-dihydro-3H-2,4-benzodioxepin-3-yl]-2-thiazolyl]-1-[2-[3,5-bis(trifluoromethyl)-1H-pyrazole-1-yl]acetyl]piperidine] |  |  |  | 90% | 90% | 70%
O=C(Cn1nc(C(F)(F)F)cc1C(F)(F)F)N1CCC(c2nc(C3OCc4cccc(F)c4CO3)cs2)CC1 (stereo not drawn) [Compound 1-41] | 100 | 100 | 100 |  |  | 
COc1ccc(C)c2c1COC(c1csc(C3CCN(C(=O)Cn4nc(C(F)(F)F)cc4C(F)(F)F)CC3)n1)OC2 (stereo not drawn) [Compound 1-134] | 100 | 100 | 100 |  |  | 
